SMILES	melting point [°C]
O=C(NC1CC1)c1cc(Nc2nc(N3CCC[C@H]3CO)nc3ccoc23)n[nH]1 [Compound 15C, (S)—N-cyclopropyl-3-(2-(2-(hydroxymethyl)pyrrolidin-1-yl)furo[3,2-d]pyrimidin-4-ylamino)-1H-pyrazole-5-carboxamide]	96.8
O=C(NC1CCC1)c1cc(Nc2nc(N3CCCC3c3ccccn3)nc3ccoc23)n[nH]1 (centres unmarked) [Compound 14F, N-cyclobutyl-3-(2-(2-(pyridin-2-yl)pyrrolidin-1-yl)furo[3,2-d]pyrimidin-4-ylamino)-1H-pyrazole-5-carboxamide]	274.3

Now from value to compound:

melting point [°C]	SMILES
270.8	CN(C)c1nc(Nc2cc(C(=O)NC3CCC3)n[nH]2)c2occc2n1 [Compound 19A, N-cyclobutyl-5-(2-(dimethylamino)furo[3,2-d]pyrimidin-4-ylamino)-1H-pyrazole-3-carboxamide]
250.1	O=C(NC1CCC1)c1cc(Nc2nc(N3CCCC3c3ccccn3)nc3ccoc23)[nH]n1 (centres unmarked) [Compound 13E, N-cyclobutyl-5-(2-(2-(pyridin-2-yl)pyrrolidin-1-yl)furo[3,2-d]pyrimidin-4-ylamino)-1H-pyrazole-3-carboxamide]
238.4	O=C(NC1CC1)c1cc(Nc2nc(N3CCCC3c3ccccn3)nc3ccoc23)[nH]n1 (centres unmarked) [Compound 12E, N-cyclopropyl-5-(2-(2-(pyridin-2-yl)pyrrolidin-1-yl)furo[3,2-d]pyrimidin-4-ylamino)-1H-pyrazole-3-carboxamide]

Source: patent publication US20120309773A1, “HETEROCYCLIC COMPOUNDS AS JANUS KINASE INHIBITORS” (priority 2009, published 2012)
